In patent publication US20100310536A1, “METHOD FOR EXPANDING HEMATOPOIETIC STEM CELLS USING HETEROCYCLIC COMPOUND” (Nissan Chemical Industries Limited, priority 2007, published 2010):

Tested on: human cord blood-derived CD34+ cells
Test: Expansion of CD34+ cells from human cord blood-derived CD34+ cells (7-day liquid culture with SCF, flow cytometry count)
Format: cell-based
Conditions: 168 h, 0.3 μg/mL compound, number of CD34+ cells relative to absence of compound, 100 ng/mL SCF, 7 days, 37° C., read-out: Expansion efficiency
Protocol: Commercially available human cord blood-derived CD34^+ cells (Cambrex Bio Science Walkersville) were plated on a 12-well plate (Corning) (from 5000 to 10000 cells/1 mL/well). As the culture medium, StemSpan SFEM (Stemcell Technologies) containing 100 ng/mL SCF (R&D Systems) was used, and Compounds Nos. 1 to 11 dissolved in dimethyl sulfoxide were added in an amount of 0.1% (v/v) to a final concentration of 0.3 or 1 μg/mL.
After the cells were incubated in liquid culture at 37° C. for 7 days in a CO2 incubator (in an atmosphere containing 5 vol % CO2), the total number of cells was counted by trypan blue assay (Invitrogen) or Flow-Count™ fluorosphere assay (Beckman Coulter). The number of CD34^+ cells was calculated as follows. After the incubation, the cells in the liquid culture was stained with a CD34 antibody (PE, Becton, Dickinson and Company). The stained cells were analyzed with a flow cytometer (Beckman Coulter) to determined the proportion of CD34^+ cells, which was multiplied by the total number of cells to calculate the number of CD34^+ cells.
The expansion efficiencies in the presence of 0.3 μg/mL or 1 μg/mL of compounds based on the number of CD34^+ cells in the absence of them are shown in Table 1 on a scale of A for expansion efficiencies of 3 or greater, B for expansion efficiencies of at least 2 and less than 3, and C for expansion efficiencies of at least 1.4 and less than 2.

SMILES | fold induction at 0.3 µg/mL
C/C(=N\NC(=O)c1ccc(C(=O)NNc2ccccn2)s1)c1csc(-c2ccc(Cl)c(Cl)c2)c1O [compound 5] | 1.4 to 2
C/C(=N\NC(=O)c1ccc(C(=O)N(N)Cc2ccncc2)s1)c1csc(-c2ccc(Cl)c(Cl)c2)c1O [compound 6] | 1.4 to 2
C/C(=N\NC(=O)c1ccc(C(=O)Cn2ccc(=O)cc2)s1)c1csc(-c2ccc(Cl)c(Cl)c2)c1O [compound 7] | 1.4 to 2
C/C(=N\NC(=O)c1ccc(C(=O)CSc2ccncc2)s1)c1csc(-c2ccc(Cl)c(Cl)c2)c1O [compound 8] | 2 to 3
C/C(=N\NC(=O)c1ccc(C(=O)N2CCS(=O)(=O)CC2)s1)c1csc(-c2ccc(Cl)c(Cl)c2)c1O [compound 9] | 1.4 to 2

Same assay, conditions: 168 h, 1 μg/mL compound, number of CD34+ cells relative to absence of compound, 100 ng/mL SCF, 7 days, 37° C., read-out: Expansion efficiency

SMILES | fold induction at 1 µg/mL
CC(=O)NC1CCN(C(=O)c2ccc(C(=O)N/N=C(\C)c3csc(-c4ccc(Cl)c(Cl)c4)c3O)s2)C1 (centres unmarked) [compound 1] | ≥ 3
C/C(=N\NC(=O)c1ccc(C(=O)NN(C)C)s1)c1csc(-c2ccc(Cl)c(Cl)c2)c1O [compound 2] | ≥ 3
C/C(=N\NC(=S)Nc1cccc(C(=O)NCCC(N)=O)c1)c1csc(-c2ccc(Cl)c(Cl)c2)c1O [compound 3] | ≥ 3
C/C(=N\NC(=O)c1ccc(C(=O)N2CC(O)C(O)C2)s1)c1csc(-c2ccc(Cl)c(Cl)c2)c1O (centres unmarked) [compound 4] | ≥ 3
C/C(=N\NC(=O)c1ccc(C(=O)CSc2cc[n+]([O-])cc2)s1)c1csc(-c2ccc(Cl)c(Cl)c2)c1O [compound 10] | ≥ 3
C/C(=N\NC(=O)c1ccc(C(=O)COc2cc(C)nn2C)s1)c1csc(-c2ccc(Cl)c(Cl)c2)c1O [compound 11] | 2 to 3
